By IC50 is commonly meant the concentration that inhibits the measured activity by half.

This test deals with T1, Cytochrome P450 2C23 (Rattus norvegicus, UniProt P24470).
T1 sequence (P24470 whole entry): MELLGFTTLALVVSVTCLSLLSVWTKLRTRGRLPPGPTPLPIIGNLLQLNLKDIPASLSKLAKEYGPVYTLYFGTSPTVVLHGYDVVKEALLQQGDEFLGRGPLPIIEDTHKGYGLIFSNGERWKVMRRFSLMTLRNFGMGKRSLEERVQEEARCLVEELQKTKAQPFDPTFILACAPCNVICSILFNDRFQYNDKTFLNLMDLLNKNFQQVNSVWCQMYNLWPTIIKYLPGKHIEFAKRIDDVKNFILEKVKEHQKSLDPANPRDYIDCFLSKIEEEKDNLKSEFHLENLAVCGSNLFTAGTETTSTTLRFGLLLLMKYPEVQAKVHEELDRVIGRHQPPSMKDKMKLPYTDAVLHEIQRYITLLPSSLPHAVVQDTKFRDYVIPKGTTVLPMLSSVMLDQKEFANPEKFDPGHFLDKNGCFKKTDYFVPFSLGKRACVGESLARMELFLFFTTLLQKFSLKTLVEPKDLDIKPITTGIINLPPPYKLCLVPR
The test can be described thus: Inhibition of Cytochrome P450 epoxygenase in rat kidney microsomes. It counts as ADME.
The compound `C#CC#CC(O)CCc1ccccc1-c1ccccc1CO` (stereo not drawn) returned an IC50 of 5 µM. As to `COC(=O)CCCCCCCC=C(Br)Br`, the concentration for half-maximal inhibition (IC50) was determined as 6 µM. Consider `CS(=O)(=O)NC(=O)CCCCCCCC=C(Br)Br`, for which inhibition was half-maximal at 6 µM (IC50).
